Laboratory results from patent publication US5280548A, “Emission based fiber optic sensors for pH and carbon dioxide analysis” (BOC Health Care, Inc., priority 1993, dated 1994).
Entries after “also recorded” stand apart in the source; their conditions may differ. Where two headings read alike, the source gives them in different places.

What was measured:
[1] = 25° C.; cited from earlier work
[2] = pKa determination from pH-dependent emission; format: physicochemical
Protocol: (§1) The effect of temperature on the parameters describing the pH dye was determined. […] The emission spectra were measured as a function of pH at 20° C., 25° C., 30° C., 37° C., and 45° C. […] The relative emission intensity, B, was defined as the ratio of the emission from the base tautomer at 650 nm to the emission from the isosbestic point. The relative emission, A, was defined as the ratio of the isosbestic point emission to the emission from the acid tautomer at 650 nm. The quantities A and B define the upper and lower asymptotes on the response vs. pH sigmoidal curve. The pKa, A, and B were determined for the series of emission spectra at each temperature by fitting the emission intensity at 650 nm to the theoretical response vs. pH curve using non-linear regression.

[3] = Emission lifetime measurement; format: physicochemical; conditions: for lifetime (τ): 25° C.
Source text: 1969, 31, 1-13], as a standard.

[4] = Absorption spectra; format: physicochemical; conditions: 25° C.
Protocol: Absorption spectra were recorded on a Perkin-Elmer Lambda 5 spectrophotometer.

[5] = Effect of temperature on emission parameters A and B of the pH dye; format: physicochemical; conditions: for A (relative emission, lower asymptote of response vs. pH) / B (relative emission intensity, base tautomer / isosbestic point): 650 nm
Protocol: as §1

[6] = Solubility observations; format: physicochemical
Protocol: The polymers prepared above were soluble in acetone, dioxane, tetrahydrofuran, ethanol, and dimethylacetamide. A concentrated solution of the polymer in one of these solvents was prepared and applied to the distal tip of a methacrylate optical fiber, the tip of which had been prepared by cleaving normal to its longitudinal axis with a fresh scalpel blade. The sensors were allowed to dry overnight before use.

[7] = for emission yield (Φ): 25° C.
Protocol: Emission spectra were recorded on either a ISS Greg-200 spectrofluorometer or a single-fiber spectrofluorometer discussed below. Absorption spectra were recorded on a Perkin-Elmer Lambda 5 spectrophotometer. Lifetime measurements were recorded with the ISS Greg-200 spectrofluorometer using excitation by a Coherent 700 Dye Laser with Rhodamine 6G synchronously pumped with a frequency doubled Coherent Antares mode-locked Nd:YAG laser. The mode-locker was driven by a Marconi Instruments 2022a frequency synthesizer locked in phase to another Marconi Instruments 2022a frequency synthesizer which modulated the photomultiplier tubes on the Greg-200 instrument.
Emission yields were corrected for instrument response and measured using tetraphenylporphyrin in benzene, .PHI.=0.11 [Seybold, Paul G.; Gouterman, Martin J. Mol. Spectrosc. 1969, 31, 1-13], as a standard. Lifetime measurements were calibrated with scattered light, .tau.=0. […] The output from the laser was measured before and after the experiment to ensure constant excitation intensity.

[8] = aqueous solution, 540 nm excitation

Compound: O=C=O [carbon dioxide]
- pKa1 [1]: 6.35
- pKa2 [1]: 10.33
- solubility in water [1]: 0.759 ml carbon dioxide @ STP/ml water

Compound: seminaphthorhodaflor-1-carboxylate [SNARF-1C]
- pKa ([2]; 20° C. (Table 2)): 7.79 ± .03
- pKa ([2]; 25° C. (Table 1)): 7.58 ± 0.04
- pKa ([2]; 25° C. (Table 2)): 7.58 ± .01
- pKa ([2]; 30° C. (Table 2)): 7.57 ± .03
- pKa ([2]; 37° C. (Table 1)): 7.44 ± 0.05
- pKa ([2]; 37° C. (Table 2)): 7.44 ± .04
- pKa ([2]; 45° C. (Table 2)): 7.43 ± .06
- emission lifetime, in words [3]: The emission lifetimes are insensitive to concentration; also recorded: The lifetime of the acid tautomer of SNARF-1C is shorter than that for the base tautomer
- lifetime (τ) ([3]; acid form, Conc. 10e-6 M): .80 ns
- lifetime (τ) ([3]; acid form, Conc. 10e-5 M): .80 ns
- lifetime (τ) ([3]; acid form, Conc. 10e-4 M): .78 ns
- lifetime (τ) ([3]; base form, Conc. 10e-6 M): 1.38 ns
- lifetime (τ) ([3]; base form, Conc. 10e-5 M): 1.41 ns
- lifetime (τ) ([3]; base form, Conc. 10e-4 M): 1.26 ns
- lifetime, acid tautomer ([3]; acid tautomer): 800 psec
- lifetime of acid tautomer, difference from previous measurement ([3]; vs. Whitaker et al. 1991): 200 psec
- lambda max ([4]; acid form, Conc. 10e-6 M): 551 nm
- ε ([4]; acid form, Conc. 10e-6 M): 19920 M⁻¹ cm⁻¹
- lambda max ([4]; acid form, Conc. 10e-5 M): 553 nm
- ε ([4]; acid form, Conc. 10e-5 M): 19380 M⁻¹ cm⁻¹
- lambda max ([4]; acid form, Conc. 10e-4 M): 549 nm
- ε ([4]; acid form, Conc. 10e-4 M): 12650 M⁻¹ cm⁻¹
- lambda max ([4]; base form, Conc. 10e-6 M): 577 nm
- ε ([4]; base form, Conc. 10e-6 M): 38220 M⁻¹ cm⁻¹
- lambda max ([4]; base form, Conc. 10e-5 M): 576 nm
- ε ([4]; base form, Conc. 10e-5 M): 37510 M⁻¹ cm⁻¹
- lambda max ([4]; base form, Conc. 10e-4 M): 572 nm
- ε ([4]; base form, Conc. 10e-4 M): 27770 M⁻¹ cm⁻¹
- A and B vs. temperature, in words ([5]; 20-45° C.): independent of temperature
- A (relative emission, lower asymptote of response vs. pH) ([5]; 20° C.): .721 ± .062
- B (relative emission intensity, base tautomer / isosbestic point) ([5]; 20° C.): 5.07 ± .11
- A (relative emission, lower asymptote of response vs. pH) ([5]; 25° C.): .628 ± .061
- B (relative emission intensity, base tautomer / isosbestic point) ([5]; 25° C.): 4.22 ± .10
- A (relative emission, lower asymptote of response vs. pH) ([5]; 30° C.): .678 ± .072
- B (relative emission intensity, base tautomer / isosbestic point) ([5]; 30° C.): 4.95 ± .12
- A (relative emission, lower asymptote of response vs. pH) ([5]; 37° C.): .702 ± .069
- B (relative emission intensity, base tautomer / isosbestic point) ([5]; 37° C.): 4.10 ± .11
- A (relative emission, lower asymptote of response vs. pH) ([5]; 45° C.): .674 ± .127
- B (relative emission intensity, base tautomer / isosbestic point) ([5]; 45° C.): 5.48 ± .19
- solubility, in words [6]: The potassium salt of the acid was much easier to dissolve
- emission yield (Φ) ([7]; acid form, Conc. 10e-6 M): .12
- emission yield (Φ) ([7]; acid form, Conc. 10e-5 M): .12
- emission yield (Φ) ([7]; acid form, Conc. 10e-4 M): .018
- emission yield (Φ) ([7]; base form, Conc. 10e-6 M): .2
- emission yield (Φ) ([7]; base form, Conc. 10e-5 M): .22
- emission yield (Φ) ([7]; base form, Conc. 10e-4 M): .082
- emission maximum, acid peak [7, 8]: 590 nm
- emission maximum, base peak [7, 8]: 640 nm
- isosbestic point ([7]; emission spectra as a function of pH): 605 nm
- emission spectra, in words ([7]; shift of spectra): do not differ from the previously published spectra; also recorded: did not shift with temperature
